Drawing on ChEMBL document CHEMBL2073971, “Organic anion-transporting polypeptides mediate transport of opioid peptides across blood-brain barrier” (J Pharmacol Exp Ther, 2000), this text covers Km and Activity for eight molecules.

The target in data set [1] is T1, Solute carrier organic anion transporter family member 1A2 (OATP1A2) (Homo sapiens, UniProt P46721).
T1 sequence (P46721 whole entry): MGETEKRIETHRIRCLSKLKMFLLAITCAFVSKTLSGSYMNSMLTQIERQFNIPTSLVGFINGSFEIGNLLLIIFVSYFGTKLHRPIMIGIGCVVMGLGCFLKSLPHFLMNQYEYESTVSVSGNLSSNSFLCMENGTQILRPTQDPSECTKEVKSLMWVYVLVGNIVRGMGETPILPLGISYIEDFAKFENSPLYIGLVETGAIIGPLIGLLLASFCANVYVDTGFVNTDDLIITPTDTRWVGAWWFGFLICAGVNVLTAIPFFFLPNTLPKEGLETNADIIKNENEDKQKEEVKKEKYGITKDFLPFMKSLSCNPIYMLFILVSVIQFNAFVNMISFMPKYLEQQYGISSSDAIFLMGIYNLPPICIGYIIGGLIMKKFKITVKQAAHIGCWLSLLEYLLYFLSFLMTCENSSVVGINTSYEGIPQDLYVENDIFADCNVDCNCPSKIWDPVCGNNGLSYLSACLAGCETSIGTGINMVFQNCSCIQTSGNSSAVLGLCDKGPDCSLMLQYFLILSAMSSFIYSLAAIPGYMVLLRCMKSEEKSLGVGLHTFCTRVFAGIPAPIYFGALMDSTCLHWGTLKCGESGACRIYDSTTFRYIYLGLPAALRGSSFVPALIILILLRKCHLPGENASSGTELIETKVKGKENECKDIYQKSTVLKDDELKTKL
As to the kind of experiment: (§1) TP_TRANSPORTER: uptake in Xenopus laevis oocytes. Conditions: Xenopus laevis oocytes expressing the transporter. It counts as functional, cell-based, Oocyte.

The target of data set [2] is T2, Solute carrier organic anion transporter family member 1A2 (Homo sapiens, UniProt P46721).
T2 sequence (P46721 whole entry): T1 sequence (P46721 whole entry)
As to the kind of experiment: TP_TRANSPORTER: inhibition of Deltorphin II uptake (Deltorphin II: 50 uM, DPDPE: 500 uM) in Xenopus laevis oocytes. It counts as functional, cell-based. Conditions: oocyte.

Data set [3] addresses T2, Solute carrier organic anion transporter family member 1A2. The data set is described as follows: TP_TRANSPORTER: inhibition of Deltorphin II uptake (Deltorphin II: 50 uM, DAMGO: 200 uM) in Xenopus laevis oocytes. It counts as functional, cell-based. Conditions: oocyte.
For data set [4], the target named is T3, Solute carrier organic anion transporter family member 1A4 (Rattus norvegicus, UniProt O35913).
T3 sequence (O35913 whole entry): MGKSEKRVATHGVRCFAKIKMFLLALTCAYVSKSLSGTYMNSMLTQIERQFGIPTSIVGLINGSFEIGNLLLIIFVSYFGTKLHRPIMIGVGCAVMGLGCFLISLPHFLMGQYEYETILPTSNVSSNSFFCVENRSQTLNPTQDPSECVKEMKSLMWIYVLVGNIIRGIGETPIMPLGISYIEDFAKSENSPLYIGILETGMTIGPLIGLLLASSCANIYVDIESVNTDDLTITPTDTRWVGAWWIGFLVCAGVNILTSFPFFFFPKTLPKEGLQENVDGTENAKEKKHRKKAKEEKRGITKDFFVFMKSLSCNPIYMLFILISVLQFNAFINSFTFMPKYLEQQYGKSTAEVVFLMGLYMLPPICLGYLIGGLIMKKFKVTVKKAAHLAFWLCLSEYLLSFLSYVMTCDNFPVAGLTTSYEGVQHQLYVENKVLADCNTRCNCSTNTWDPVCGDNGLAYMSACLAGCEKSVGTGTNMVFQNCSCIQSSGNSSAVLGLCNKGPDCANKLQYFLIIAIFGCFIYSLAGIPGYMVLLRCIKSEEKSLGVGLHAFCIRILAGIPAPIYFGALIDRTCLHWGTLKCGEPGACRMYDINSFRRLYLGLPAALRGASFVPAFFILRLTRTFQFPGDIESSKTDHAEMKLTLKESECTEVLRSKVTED
The data set is described as §1. It counts as functional, cell-based. The note with it: oocyte.

Data set [5] has as its target T2, Solute carrier organic anion transporter family member 1A2. As to the kind of experiment: TP_TRANSPORTER: inhibition of Deltorphin II uptake (Deltorphin II: 50 uM, E1S: 150 uM) in Xenopus laevis oocytes. It counts as functional, cell-based. The note with it: oocyte.
For data set [6] the target is unchanged. As to the kind of experiment: TP_TRANSPORTER: inhibition of Deltorphin II uptake (Deltorphin II: 50 uM, Naloxone: 1500 uM) in Xenopus laevis oocytes. It counts as functional, cell-based. Conditions: oocyte.
The target is the same in data set [7]. The data set is described as follows: TP_TRANSPORTER: inhibition of Deltorphin II uptake (Deltorphin II: 50 uM, Naltrindole: 1500 uM) in Xenopus laevis oocytes. It counts as functional, cell-based. Conditions: oocyte.
Substrate in data set [8]: CC1(C)SSC(C)(C)[C@@H](NC(=O)[C@@H](N)Cc2ccc(O)cc2)C(=O)NCC(=O)N[C@@H](Cc2ccccc2)C(=O)N[C@H]1C(=O)O
The data set is described as §1. It counts as functional, cell-based, Oocyte.

Substrate in data set [9]: CC(C)[C@H](NC(=O)[C@H](CCC(=O)O)NC(=O)[C@H](Cc1ccccc1)NC(=O)[C@@H](C)NC(=O)[C@@H](N)Cc1ccc(O)cc1)C(=O)N[C@H](C(=O)NCC(N)=O)C(C)C
Described as §1. It counts as functional, cell-based, Oocyte.

With `CC1(C)SSC(C)(C)[C@@H](NC(=O)[C@@H](N)Cc2ccc(O)cc2)C(=O)NCC(=O)N[C@@H](Cc2ccccc2)C(=O)N[C@H]1C(=O)O`, in data set [1], the Km (as a rule, the substrate concentration at which the rate is half of its maximum) worked out at 202 µM. In addition, the Activity entry in data set [2] is “inhibitor [(at a rough estimate) 50 % of control]”.

Consider `C[C@@H](NC(=O)[C@@H](N)Cc1ccc(O)cc1)C(=O)NCC(=O)N(C)[C@@H](Cc1ccccc1)C(=O)NCCO` [DAMGO], for which, in data set [3], the Activity entry was “inhibitor [(at a rough estimate) 50 % of control]”.

For `CC(C)[C@H](NC(=O)[C@H](CCC(=O)O)NC(=O)[C@H](Cc1ccccc1)NC(=O)[C@@H](C)NC(=O)[C@@H](N)Cc1ccc(O)cc1)C(=O)N[C@H](C(=O)NCC(N)=O)C(C)C` [DELTORPHIN II], the Activity entry in data set [4] was “is not a substrate [-]”. For the same molecule, in [1], the Km worked out at 330 µM.

Consider `C[C@]12CC[C@@H]3c4ccc(OS(=O)(=O)O)cc4CC[C@H]3[C@@H]1CCC2=O` [ESTRONE SULFURIC ACID], for which the Activity result in data set [5] is “inhibitor [(at a rough estimate) 10 % of control]”.

Take `C=CCN1CC[C@]23c4c5ccc(O)c4O[C@H]2C(=O)CC[C@@]3(O)[C@H]1C5` [NALOXONE]: the Activity result in data set [6] is “inhibitor [(at a rough estimate) 20 % of control]”.

For the molecule `Oc1ccc2c3c1O[C@H]1c4[nH]c5ccccc5c4C[C@@]4(O)[C@@H](C2)N(CC2CC2)CC[C@]314` [NALTRINDOLE], the Activity result in [7] was “inhibitor [(at a rough estimate) 10 % of control]”.

B1: Solute carrier organic anion transporter family member 1A4 (Rattus norvegicus) (protein)
chain: T3 sequence (O35913 whole entry)
Consider B1, for which the Km in [8] worked out at 19 µM.

B2: Solute carrier organic anion transporter family member 1A1 (Rattus norvegicus) (protein)
chain: MEETEKKIATQEGRLFSKMKVFLLSLTCACLTKSLSGVYMNSMLTQIERQFDISTSVAGLINGSFEIGNLFFIVFVSYFGTKLHRPVVIGIGCVIMGLGCLLMSLPHFFMGRYEYETTISPTGNLSSNSFLCMENRTQTLKPTQDPAECVKEMKSLMWICVMVGNIIRGIGETPIVPLGISYIEDFAKSENSPLYIGILEMGKVAGPIFGLLLGSYCAQIYVDIGSVNTDDLTITPSDTRWVGAWWIGFLVCAGVNILTSIPFFFLPKALPKKGQQENVAVTKDGKVEKYGGQAREENLGITKDFLTFMKRLFCNPIYMLFILTSVLQVNGFINKFTFLPKYLEQQYGKSTAEAIFLIGVYSLPPICLGYLIGGFIMKKFKITVKKAAYLAFCLSVFEYLLFLCHFMLTCDNAAVAGLTTSYKGVQHQLHVESKVLADCNTRCSCSTNTWDPVCGDNGVAYMSACLAGCKKFVGTGTNMVFQDCSCIQSLGNSSAVLGLCKKGPECANRLQYFLILTIIISFIYSLTAIPGYMVFLRCVKSEEKSLGVGLHTFCIRVFAGIPAPVYFGALIDRTCLHWGTLKCGQRGACRMYDINSFRHIYLGLPIALRGSSYLPAFFILILMRKFQFPGDIDSSATDHTEMMLGEKESEHTDVHGSPQVENDGELKTKL
Turning to B2, the Km is 48 µM in data set [8] and 137 µM in data set [9].
